# According to PubChem BioAssay (NCI):
# Several values for one entry are separate records, joined by “and”; a condition that tells them apart may be missing. Equal entries are not always repeated.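 Dose response: 5 concentrations. Exposure: 48 h. Format: 96-well plates. Endpoint: linear interpolation; highest concentration if not reached. GI50: concentration for 50% inhibition of growth. The concentration for full growth arrest is given as TGI.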
# Key:
# Assay in all cases: NCI tumour cell line growth inhibition, 48 h
# HS 578T breast = tested on: HS 578T breast
# SF-539 CNS = tested on: SF-539 CNS
# MALME-3M melanoma = tested on: MALME-3M melanoma
# SK-MEL-28 melanoma = tested on: SK-MEL-28 melanoma
# NCI-H226 lung = tested on: NCI-H226 lung
# MDA-MB-231 breast = tested on: MDA-MB-231 breast
# HOP-92 NSCLC = tested on: HOP-92 NSCLC
# KM20L2 colon = tested on: KM20L2 colon
# U251 CNS = tested on: U251 CNS
# M14 melanoma = tested on: M14 melanoma
# PC-3 prostate = tested on: PC-3 prostate
# NCI-H460 lung = tested on: NCI-H460 lung
# HL-60(TB) leukemia = tested on: HL-60(TB) leukemia
# SN12C renal = tested on: SN12C renal
# UACC-257 melanoma = tested on: UACC-257 melanoma
# EKVX NSCLC = tested on: EKVX NSCLC
# DLD-1 colon = tested on: DLD-1 colon
# OVCAR-4 ovarian = tested on: OVCAR-4 ovarian
# UO-31 renal = tested on: UO-31 renal
# HT29 colon = tested on: HT29 colon
# OVCAR-5 ovarian = tested on: OVCAR-5 ovarian
# LOX IMVI melanoma = tested on: LOX IMVI melanoma
# BT-549 breast = tested on: BT-549 breast
# 786-0 renal = tested on: 786-0 renal
# SF-295 CNS = tested on: SF-295 CNS
# OVCAR-3 ovarian = tested on: OVCAR-3 ovarian
# HCT-116 colon = tested on: HCT-116 colon
# DMS 114 small cell lung = tested on: DMS 114 small cell lung
# DMS 273 small cell lung = tested on: DMS 273 small cell lung
# SNB-75 CNS = tested on: SNB-75 CNS
# SK-MEL-2 melanoma = tested on: SK-MEL-2 melanoma
# CCRF-CEM leukemia = tested on: CCRF-CEM leukemia
# A549 NSCLC = tested on: A549 NSCLC
# M19-MEL melanoma = tested on: M19-MEL melanoma
# CAKI-1 renal = tested on: CAKI-1 renal
# IGROV1 ovarian = tested on: IGROV1 ovarian
# MOLT-4 leukemia = tested on: MOLT-4 leukemia
# SK-OV-3 ovarian = tested on: SK-OV-3 ovarian
# LXFL 529 NSCLC = tested on: LXFL 529 NSCLC
# ACHN renal = tested on: ACHN renal
# MCF7 breast = tested on: MCF7 breast
# UACC-62 melanoma = tested on: UACC-62 melanoma
# HOP-62 NSCLC = tested on: HOP-62 NSCLC
# COLO 205 colon = tested on: COLO 205 colon
# XF 498 CNS = tested on: XF 498 CNS
# K-562 leukemia = tested on: K-562 leukemia
# NCI/ADR-RES ovarian = tested on: NCI/ADR-RES ovarian
# TK-10 renal = tested on: TK-10 renal
# SNB-78 CNS = tested on: SNB-78 CNS
# DU-145 prostate = tested on: DU-145 prostate
# SF-268 CNS = tested on: SF-268 CNS
# RXF 393 renal = tested on: RXF 393 renal
# SNB-19 CNS = tested on: SNB-19 CNS
# HCT-15 colon = tested on: HCT-15 colon
# HCC-2998 colon = tested on: HCC-2998 colon
# OVCAR-8 ovarian = tested on: OVCAR-8 ovarian
# MDA-N = tested on: MDA-N
# NCI-H522 lung = tested on: NCI-H522 lung
# RPMI-8226 leukemia = tested on: RPMI-8226 leukemia
# NCI-H23 lung = tested on: NCI-H23 lung
# SW-620 colon = tested on: SW-620 colon
# SK-MEL-5 melanoma = tested on: SK-MEL-5 melanoma
# MDA-MB-435 = tested on: MDA-MB-435
# SR leukemia = tested on: SR leukemia
# A498 renal = tested on: A498 renal
# KM12 colon = tested on: KM12 colon
# T-47D breast = tested on: T-47D breast
compound,measurement,setting,value
O=C(CCl)Nc1ccc(C(=O)N/N=C/c2ccc(Cl)cc2)cc1,TGI,HS 578T breast,6.7 µM
same,GI50,SF-539 CNS,1.75 µM
same,TGI,SF-539 CNS,3.29 µM and 4.35 µM
same,GI50,MALME-3M melanoma,3.79 µM
same,TGI,MALME-3M melanoma,3.63 µM and 14.2 µM
same,GI50,SK-MEL-28 melanoma,3.59 µM
same,TGI,SK-MEL-28 melanoma,16.8 µM
same,TGI,NCI-H226 lung,35.3 µM
same,GI50,MDA-MB-231 breast,0.198 µM
same,TGI,MDA-MB-231 breast,3.68 µM and 0.417 µM
same,TGI,HOP-92 NSCLC,4.53 µM
same,TGI,KM20L2 colon,27.4 µM
same,TGI,U251 CNS,3.61 µM and 3.24 µM
same,GI50,M14 melanoma,1.89 µM
same,TGI,M14 melanoma,3.42 µM and 18.3 µM
same,GI50,PC-3 prostate,10.1 µM
same,TGI,PC-3 prostate,3.53 µM and 21.9 µM
same,TGI,NCI-H460 lung,3.84 µM and 4.23 µM
same,GI50,HL-60(TB) leukemia,1.19 µM
same,TGI,HL-60(TB) leukemia,6.51 µM and 3.77 µM
same,TGI,SN12C renal,9.71 µM and 7.07 µM
same,GI50,UACC-257 melanoma,12.2 µM
same,TGI,UACC-257 melanoma,3.73 µM and 25 µM
same,GI50,EKVX NSCLC,20 µM
same,TGI,EKVX NSCLC,4.02 µM and 38.5 µM
same,TGI,DLD-1 colon,4.93 µM
same,TGI,OVCAR-4 ovarian,4.48 µM and 4.43 µM
same,TGI,UO-31 renal,10.6 µM
same,GI50,HT29 colon,2.25 µM
same,TGI,HT29 colon,3.18 µM and 4.61 µM
same,GI50,OVCAR-5 ovarian,1.98 µM
same,TGI,OVCAR-5 ovarian,3.6 µM and 33.1 µM
same,GI50,LOX IMVI melanoma,1.72 µM
same,TGI,LOX IMVI melanoma,3.5 µM and 2.91 µM
same,TGI,BT-549 breast,3.53 µM and 4.11 µM
same,TGI,786-0 renal,3.09 µM and 3.12 µM
same,GI50,SF-295 CNS,1.65 µM
same,TGI,SF-295 CNS,3.1 µM and 9.23 µM
same,TGI,OVCAR-3 ovarian,3.42 µM and 3.6 µM
same,GI50,HCT-116 colon,1.57 µM
same,TGI,HCT-116 colon,3.18 µM and 3.7 µM
same,TGI,DMS 114 small cell lung,2.94 µM
same,TGI,DMS 273 small cell lung,4.12 µM
same,TGI,SNB-75 CNS,30.5 µM
same,GI50,SK-MEL-2 melanoma,2.28 µM
same,TGI,SK-MEL-2 melanoma,4.14 µM and 14.7 µM
same,GI50,CCRF-CEM leukemia,2.23 µM
same,TGI,CCRF-CEM leukemia,5.32 µM and 4.46 µM
same,GI50,A549 NSCLC,3.96 µM
same,TGI,A549 NSCLC,15.2 µM
same,TGI,M19-MEL melanoma,25.6 µM
same,GI50,CAKI-1 renal,1.87 µM
same,TGI,CAKI-1 renal,4.39 µM and 3.35 µM
same,GI50,IGROV1 ovarian,1.85 µM
same,TGI,IGROV1 ovarian,3.86 µM and 2.34 µM
same,GI50,MOLT-4 leukemia,2.44 µM
same,TGI,MOLT-4 leukemia,6.28 µM and 5.35 µM
same,GI50,SK-OV-3 ovarian,12.3 µM
same,TGI,SK-OV-3 ovarian,8.02 µM and 24.7 µM
same,TGI,LXFL 529 NSCLC,3.2 µM
same,GI50,ACHN renal,2.92 µM
same,TGI,ACHN renal,6.57 µM and 9.22 µM
same,GI50,MCF7 breast,10 µM
same,TGI,MCF7 breast,22.6 µM
same,GI50,UACC-62 melanoma,1.71 µM
same,TGI,UACC-62 melanoma,3.2 µM and 8.78 µM
same,GI50,HOP-62 NSCLC,1.74 µM
same,TGI,HOP-62 NSCLC,3.45 µM and 14.7 µM
same,GI50,COLO 205 colon,2.01 µM
same,TGI,COLO 205 colon,4.05 µM and 1.44 µM
same,TGI,XF 498 CNS,3 µM
same,GI50,K-562 leukemia,2 µM
same,TGI,K-562 leukemia,4.04 µM and 7.46 µM
same,GI50,NCI/ADR-RES ovarian,1.5 µM
same,TGI,NCI/ADR-RES ovarian,8 µM and 3.38 µM
same,GI50,TK-10 renal,1.83 µM
same,TGI,TK-10 renal,3.91 µM and 29.5 µM
same,TGI,SNB-78 CNS,15.8 µM
same,GI50,DU-145 prostate,13.5 µM
same,TGI,DU-145 prostate,8.44 µM and 27 µM
same,GI50,SF-268 CNS,1.81 µM
same,TGI,SF-268 CNS,3.88 µM and 6.85 µM
same,GI50,RXF 393 renal,2.09 µM
same,TGI,RXF 393 renal,2.39 µM and 6.52 µM
same,GI50,SNB-19 CNS,3.09 µM
same,TGI,SNB-19 CNS,5.74 µM and 20.1 µM
same,GI50,HCT-15 colon,1.48 µM
same,TGI,HCT-15 colon,3.74 µM and 9.73 µM
same,GI50,HCC-2998 colon,3.85 µM
same,TGI,HCC-2998 colon,22.5 µM
same,TGI,OVCAR-8 ovarian,5.29 µM and 6.97 µM
same,GI50,MDA-N,11 µM
same,TGI,MDA-N,3.69 µM and 24.3 µM
same,TGI,NCI-H522 lung,3.6 µM and 3.61 µM
same,GI50,RPMI-8226 leukemia,9.09 µM
same,TGI,RPMI-8226 leukemia,6.54 µM and 32.5 µM
same,GI50,NCI-H23 lung,1.62 µM
same,TGI,NCI-H23 lung,3.19 µM and 6.87 µM
same,GI50,SW-620 colon,3.35 µM
same,TGI,SW-620 colon,6.81 µM and 7.06 µM
same,GI50,SK-MEL-5 melanoma,2.14 µM
same,TGI,SK-MEL-5 melanoma,4.45 µM and 13.6 µM
same,GI50,MDA-MB-435,9.67 µM
same,TGI,MDA-MB-435,3.27 µM and 21.7 µM
same,TGI,SR leukemia,3.93 µM
same,GI50,A498 renal,13 µM
same,TGI,A498 renal,4.85 µM and 26.7 µM
same,GI50,KM12 colon,1.84 µM
same,TGI,KM12 colon,3.84 µM and 2.74 µM
same,GI50,T-47D breast,0.195 µM
